A short description of data set [1]: Cell viability assay (MTS). Type of data set: cell-based. Particulars: human, non-infected Huh7 cells; for viability at 10 µM: normalized to DMSO; for CC50 at 72 h: Huh7 cells. How it is done: Cell viability assays for non-infected Huh7 cells treated with the testing compounds (in-house library), control compounds (NITD008, RDV) and DMSO were performed in parallel with the antiviral screening. After 3 or 5 days of treatment, depending upon the experiment, cell viability was evaluated using the MTS-based tetrazolium reduction CellTiter 96 Aqueous Non-Radioactive cell proliferation assay (Promega). Treatment was retired from the wells and the cells incubated with MTS diluted 1:10 in MEM medium supplemented with 10% FBS. Absorbance was measured at 490 nm wavelength. Readings were normalized with DMSO-treated cells (100%) and expressed as % viability. For dose-response experiments, we used concentrations between 0.01 and 90 µM and dose-response curves and CC50 were calculated using GraphPad Prism.

The subject of data set [2] is ZIKV. Briefly: ZIKV reporter assay (luciferase-expressing ZIKV PAN1 Nluc in Huh7 cells). Type of data set: cell-based. Particulars: Zika virus, Huh-7, Huh7, MOI 0.2, 72 hpi. As to the method:
The initial screening for ZIKV was performed using the in-house developed infectious ZIKV reporter expressing Nanoluc (ZIKV PAN1 Nluc) (see details in SI). Briefly, 1.5 × 10^4 Huh7 cells per well were seeded in 96 well plates. Next day, cells were inoculated with the ZIKV reporter at a multiplicity of infection (MOI) of 0.2 in infection medium (MEM medium supplemented with 1% FBS, 100 IU streptomycin/penicillin per mL, 1 mM sodium pyruvate and 10 mM HEPES). After 2 h, the inoculum was replaced with post-infection medium (MEM medium supplemented with 5% FBS, 100 IU streptomycin/penicillin per mL, 1 mM sodium pyruvate and 10 mM HEPES) containing compound of interest (10 µM). We used the flavivirus NS5 MTase inhibitor NSC12155^13 (10 µM) and the NS5 RdRp inhibitor NITD008^12 (1 µM) as positive controls for inhibition or 0.05% DMSO as vehicle control. Seventy-two hours post-infection (hpi), the cells were lysed with 50 µL 1× luciferase lysis buffer (Promega, Madison, WI, USA), incubated 10 min at room temp and stored at −80 °C. Thirty-five µL of lysed cells were transferred to a white 96-well plate and combined with 35 µL Nano-Glo® luciferase assay substrate (Promega) diluted 1:50 in Nano-Glo® luciferase assay buffer (Promega). The reaction was incubated for 2 min and luminescence readings were acquired using a Neo 2 plate reader (BioTek, Winooski, VT, USA). Percent inhibition was calculated in GraphPad Prism (San Diego, CA, USA) normalizing the luciferase signal to infected cells treated with DMSO (0% inhibition) and uninfected cells treated with DMSO (100% inhibition). EC50 values were calculated in GraphPad Prism using data obtained from dose-response experiments. For compounds 1 and 8, a range of concentrations between 0.05 and 15 µM were used. For compounds 11, 14, 23 and NSC12155, we used concentrations from 0.005 to 90 µM and 0.002 to 45 µM for NITD008.
A general note: A reporter such as luciferase makes a cellular process visible.

Data set [3] concerns ZIKV. Briefly: ZIKV titer-reduction assay (plaque assay). The class given is cell-based, Zika virus. The note with it: Huh7, MOI 0.2, 72 hpi; for inhibition at 8.5 µM / inhibition at 1.5 µM / EC50 / EC90: Zika virus; for inhibition at 8.5 µM / inhibition at 1.5 µM: Huh-7, 72 h; for EC50 / EC90: Huh-7. As to the method: Selected compounds were validated at 8.5 µM or 1.5 µM (for compounds considered toxic at higher concentrations) using titer-reduction assays. Huh7 cells (1.5 × 10^5 per well) were plated in 24-well plates. Next day, the cells were inoculated with ZIKV or DENV (MOI 0.2 or 0.05, respectively) and two hours later, the inoculum was replaced with post-infection medium containing compound of interest at 8.5 µM or 1.5 µM. Seventy-two hpi, supernatants from infected and treated cells were collected and viral titers were measured by plaque assay. To visualize plaques, confluent Vero cells in 24-well plates were inoculated with 1:10 serial dilutions of supernatants. After two hours, the inoculum was retired and replaced with 800 µL of overlay medium (MEM medium containing 1.3% methylcellulose, 2% FBS, 100 IU streptomycin/penicillin per mL and 10 mM HEPES). After 5 days (7 days for DENV), cells were washed with PBS, fixed with 2% formaldehyde, and stained using 0.5% crystal violet in 25% methanol. Infectious virus titer (pfu/mL) was determined using the following formula: number of plaques × dilution factor × (1/inoculum volume (mL)). Viral titers were normalized with DMSO-treated and infected cells (0% inhibition). The limit of detection was 200 pfu/mL (100% inhibition). […] Dose-response assays (Figure S4, Panels B and C) were performed for selected compounds using titer-reduction assays. We used a concentration range of 0.5 to 15 µM for all selected compounds except for compound 14 (range of 0.1–3 µM). Pfu/mL were normalized as mentioned for single-dose response experiment using the values for DMSO-treated and infected cells (0% inhibition) and the limit of detection value (200 pfu/mL) as 100% inhibition. Dose-response curves were built in GraphPad Prism and EC50 values were obtained from those curves.

This is an account of results in publication PMC8270260, “4,7-Disubstituted 7H-Pyrrolo[2,3-d]pyrimidines and Their Analogs as Antiviral Agents against Zika Virus” (Molecules, 2021).

Each structure is given as a SMILES string.

The viability is a per cent measure of how many cells are alive, often set against a control. A higher viability goes with less harm to the cells. As usually defined, the CC50 is the concentration that lowers cell viability or growth by half. By inhibition is commonly meant the percentage by which the read-out fell short of the control. Read a low inhibition as a response near the control. The EC50 is the concentration at which the effect is half-maximal. The EC90 is the concentration at which the effect reaches the 90% level.

In the case of `O=[N+]([O-])c1ccc(Cn2cnc3c(NCc4cccc(Cl)c4)ncnc32)cc1` [Compound 29, N-(3-Chlorobenzyl)-9-(4-nitrobenzyl)-9H-purin-6-amine], in data set [1], the viability at 10 µM came out at 87% and the CC50 at 72 h was 24.5 µM. This compound registered an inhibition at 10 µM in the data set with ZIKV [2] of 59%. In the data set with ZIKV [3], this compound yielded an inhibition at 8.5 µM of 90%.
In data set [1], `FC(F)(F)c1ccc(Cn2ccc3c(NCc4cccc(Cl)c4)ncnc32)cc1` [Compound 6, N-(3-Chlorobenzyl)-7-(4-(trifluoromethyl)benzyl)-7H-pyrrolo[2,3-d]pyrimidin-4-amine] gave a viability at 10 µM of 62%. Moreover, in the data set on ZIKV [2], 10 µM produced 85% inhibition. The same compound showed an inhibition at 8.5 µM in the data set on ZIKV [3] of 83%.
The compound `O=[N+]([O-])c1ccccc1Cn1ccc2c(NCc3cccc(Cl)c3)ncnc21` [Compound 4, N-(3-Chlorobenzyl)-7-(2-nitrobenzyl)-7H-pyrrolo[2,3-d]pyrimidin-4-amine] came in with a viability at 10 µM in data set [1] of 93%. This compound yielded an inhibition at 10 µM in the data set on ZIKV [2] of 44%. Also, testing at 8.5 µM in the data set on ZIKV [3] gave an inhibition of 82%.
For `O=[N+]([O-])c1ccc(Cn2ccc3c(NCc4cc(Cl)ccc4Cl)ncnc32)cc1` [Compound 22, N-(2,5-Dichlorobenzyl)-7-(4-nitrobenzyl)-7H-pyrrolo[2,3-d]pyrimidin-4-amine], in data set [1], the viability at 10 µM is 62% and half-maximal cytotoxicity (CC50 at 72 h) was put at 26.9 µM. Besides, the inhibition at 10 µM with ZIKV [2] was 71%. Also, testing at 8.5 µM with ZIKV [3] gave an inhibition of 77%.
In data set [1], `N#Cc1ccc(Cn2ccc3c(NCc4cccc(Cl)c4)ncnc32)c2ccccc12` [Compound 15, 4-((4-((3-Chlorobenzyl)amino)-7H-pyrrolo[2,3-d]pyrimidin-7-yl)methyl)-1-naphthonitrile] had a viability at 10 µM of 84% and a CC50 at 72 h of 39.6 µM. At 10 µM the inhibition in the data set on ZIKV [2] was 69%. Moreover, testing at 8.5 µM in the data set on ZIKV [3] gave an inhibition of 0%.
The compound `O=[N+]([O-])c1ccc(Cn2ccc3c(NCc4ccc(Cl)cc4)ncnc32)cc1` [Compound 20, N-(4-Chlorobenzyl)-7-(4-nitrobenzyl)-7H-pyrrolo[2,3-d]pyrimidin-4-amine] returned a viability at 10 µM in data set [1] of 49%. Also, the inhibition at 10 µM in the data set with ZIKV [2] turned out to be 93%. The compound also had an inhibition at 1.5 µM in the data set with ZIKV [3] (1.5 µM) of 37%.
The like results for `CS(=O)(=O)c1ccc(Cn2ccc3c(NCc4cccc(Cl)c4)ncnc32)cc1` [Compound 7, N-(3-Chlorobenzyl)-7-(4-(methylsulfonyl)benzyl)-7H-pyrrolo[2,3-d]pyrimidin-4-amine] were, in that order, 39%, 98% and 69%.
In data set [1], `Cc1cc(N)c2cc(NC(=O)Nc3ccc4nc(C)cc(N)c4c3)ccc2n1` [NSC 12155, reference compound] registered a viability at 10 µM of 70% and a 50% cytotoxic concentration (CC50) at 72 h of 23 µM. Besides, in the data set on ZIKV [2], the inhibition at 10 µM amounted to 68% and the EC50 stood at 2.18 µM. Besides, in the data set on ZIKV [3] (1.5 µM), the inhibition at 1.5 µM was determined as 37%. In the data set on ZIKV [3], this compound showed an inhibition at 8.5 µM of 72%, an EC50 of 7.34 µM and an EC90 of 14.1 µM.
Consider `Nc1ccc(Cn2ccc3c(NCc4cccc(Cl)c4)ncnc32)cc1` [Compound 2, 7-(4-Aminobenzyl)-N-(3-chlorobenzyl)-7H-pyrrolo[2,3-d]pyrimidin-4-amine], for which, in data set [1], the viability at 10 µM was determined as 38%. Also, at 10 µM the inhibition with ZIKV [2] was 72%. Besides, the “Titer Reduction Assay % at 1.5 µM” value in the data set on ZIKV [3] (1.5 µM) is “toxic”.
Regarding `O=[N+]([O-])c1ccc(Cn2ccc3c(NCc4ccccc4)ncnc32)cc1` [Compound 18, N-Benzyl-7-(4-nitrobenzyl)-7H-pyrrolo[2,3-d]pyrimidin-4-amine], in data set [1], the viability at 10 µM was 42%. In the data set with ZIKV [2], this compound yielded an inhibition at 10 µM of 96%.
Compound `Nc1ncnc2c1ccn2Cc1ccc([N+](=O)[O-])cc1` [Compound 17, 7-(4-Nitrobenzyl)-7H-pyrrolo[2,3-d]pyrimidin-4-amine] showed a viability at 10 µM in data set [1] of 92%. Further, the inhibition at 10 µM with ZIKV [2] amounted to 0%.
In data set [1], `O=[N+]([O-])c1ccc(Cn2ncc3c(NCc4cccc(Cl)c4)ncnc32)cc1` [Compound 31, N-(3-Chlorobenzyl)-1-(4-nitrobenzyl)-1H-pyrazolo[3,4-d]pyrimidin-4-amine] yielded a viability at 10 µM of 96%. This compound also returned an inhibition at 10 µM in the data set with ZIKV [2] of 83%. In the data set on ZIKV [3], testing at 8.5 µM gave an inhibition of 86%.
In data set [1], `N#Cc1ccc(Cn2cnc3c(NCc4cccc(Cl)c4)ncnc32)cc1` [Compound 30, 4-((6-((3-Chlorobenzyl)amino)-9H-purin-9-yl)methyl)benzonitrile] registered a viability at 10 µM of 94% and a CC50 at 72 h of 49.3 µM. For the same compound, in the data set on ZIKV [2], the inhibition at 10 µM was determined as 68%. In the data set with ZIKV [3], this compound had an inhibition at 8.5 µM of 93%, a concentration for a half-maximal effect (EC50) of 7.12 µM and a concentration for an effect of 90% (EC90) of 12.4 µM.
Compound `N#Cc1ccc(Cn2ccc3c(NCc4cccc(Cl)c4Cl)ncnc32)cc1` [Compound 27, 4-((4-((2,3-Dichlorobenzyl)amino)-7H-pyrrolo[2,3-d]pyrimidin-7-yl)methyl)benzonitrile] had a viability at 10 µM in data set [1] of 78%. In addition, the inhibition at 10 µM in the data set on ZIKV [2] came to 71%.
For `Clc1cccc(CNc2ncnc3c2ccn3Cc2ccnc3ccccc23)c1` [Compound 14, N-(3-Chlorobenzyl)-7-(quinolin-4-ylmethyl)-7H-pyrrolo[2,3-d]pyrimidin-4-amine], in data set [1], the viability at 10 µM amounted to 48% and the CC50 at 72 h was found to be 5.67 µM. In the data set with ZIKV [2], this compound displayed an inhibition at 10 µM of 100% and an EC50 of 0.93 µM. Besides, at 1.5 µM the inhibition with ZIKV [3] (1.5 µM) was 94%. Also, in the data set on ZIKV [3], the concentration for a half-maximal effect (EC50) was 1.1 µM and the EC90 amounted to 2.28 µM.
Take `O=[N+]([O-])c1cccc(Cn2ccc3c(NCc4cccc(Cl)c4)ncnc32)c1` [Compound 5, N-(3-Chlorobenzyl)-7-(3-nitrobenzyl)-7H-pyrrolo[2,3-d]pyrimidin-4-amine]: the viability at 10 µM in data set [1] stood at 79%. The compound further displayed an inhibition at 10 µM in the data set with ZIKV [2] of 77%. In addition, the inhibition at 8.5 µM in the data set with ZIKV [3] worked out at 92%.
Regarding `Cc1cccc(CNc2ncnc3c2ccn3Cc2ccc(C#N)cc2)c1` [Compound 25, 4-((4-((3-Methylbenzyl)amino)-7H-pyrrolo[2,3-d]pyrimidin-7-yl)methyl)benzonitrile], in data set [1], the viability at 10 µM is 33%. In the data set with ZIKV [2], testing at 10 µM gave an inhibition of 84%.
With `N#Cc1ccc(Cn2ccc3c(NCc4cc(Cl)ccc4Cl)ncnc32)cc1` [Compound 28, 4-((4-((2,5-Dichlorobenzyl)amino)-7H-pyrrolo[2,3-d]pyrimidin-7-yl)methyl)benzonitrile], the viability at 10 µM in data set [1] was 48%. This compound came in with an inhibition at 10 µM in the data set on ZIKV [2] of 74%.
Regarding `N#Cc1ccc(Cn2ccc3c(NCc4ccccc4Cl)ncnc32)cc1` [Compound 26, 4-((4-((2-Chlorobenzyl)amino)-7H-pyrrolo[2,3-d]pyrimidin-7-yl)methyl)benzonitrile], the viability at 10 µM in data set [1] was 76%. The same compound returned an inhibition at 10 µM with ZIKV [2] of 58%.
